Tested on: RSV Line 19 (rA2-KL19F)
Assay: RFP (mKate2)-expressing RSV infection of A549 cells pretreated with SCFAs 24 hours before infection (RFP/DAPI)
Format: cell-based, Human Respiratory Syncytial Virus
Settings: single SCFA 100 to 300 μM, 3 MOI, imaged after 48 hours
Method: Images taken after 48 Hrs.
Cells were infected at 3 MOI of RSV Line 19 (rA2-KL19F) expressing a red fluorescent marker, mKate2, as well as the F protein from the mucogenic clinical strain, and media was replaced with the appropriate SCFAs that was previously used in cultured. After 48 hours, the cells were stained with NucBlue (life technologies) and imaged using a Keyence fluorescence microscope (FIGS. 4A-4B).

| Structure (SMILES) | expression of RFP-MKate (RFP/DAPI) |
| --- | --- |
| CCC(=O)O [propionate] | reduces the expression of RFP-MKate |
| CC(=O)O [acetate] | reduces the expression of RFP-MKate |

— US20220395477A1, “COMPOSITIONS AND METHODS FOR PREVENTING AND TREATING RESPIRATORY SYNCYTIAL VIRUS INFECTION” (priority 2019, published 2022)
